Literature values, collected in patent publication US20230320987A1, “LIPID NANOPARTICLES AND LIPOSOMES” (National Health Research Institutes, priority 2022, published 2023).

Legend:
[1] = after subcutaneous injection into a human body

Cc1cc(NC2CCN(C(=O)CCNCC(=O)O)CC2)nc(NCc2nc(CCCNCCCNC3CCCCC3)co2)n1 [CX-1, (3-{4-[2-({4-[3-(3-cyclohexylaminopropylamino)propyl]oxazol-2-ylmethyl}amino)-6-methyl-pyrimidin-4-ylamino]piperidin-1-yl}-3-oxopropylamino)acetic acid]
half-life [1]: less than one
water solubility: high
